Experimental data: ChEMBL document CHEMBL4339221, “Investigating the Anticancer Activity of Isatin/Dihydropyrazole Hybrids” (ACS Med Chem Lett, 2019)

How the values were obtained:
A549 [1] = test: Antiproliferative activity against human A549 cells assessed as reduction in cell growth incubated for 72 hrs by MTT assay; type: functional, cell-based; conditions: A549, 72 h
[2] = Induction of necrosis in human IGR-39 cells at 0.5 times antiproliferative EC50 incubated for 72 hrs by Hoechst 33342 and propidium iodide staining based inverted fluorescent microscopy relative to untreated control; type: functional
[3] = Antiproliferative activity against human IGR-39 cells assessed as cell growth at 10 uM incubated for 72 hrs by MTT assay relative to untreated control; type: functional; conditions: IGR-39, 72 h, read-out: Activity
U-87 MG [4] = test: Antiproliferative activity against human U87 cells assessed as cell growth at 10 uM incubated for 72 hrs by MTT assay relative to untreated control; type: functional, U-87MG ATCC; conditions: read-out: Activity
SK-OV-3 [5] = test: Antiproliferative activity against human SKOV3 cells assessed as cell growth at 10 uM incubated for 72 hrs by MTT assay relative to untreated control; type: functional; conditions: SK-OV-3, 72 h, read-out: Activity
[6] = Antiproliferative activity against human NHFB cells assessed as reduction in cell growth incubated for 72 hrs by MTT assay; type: cell-based
BXPC-3 [7] = test: Antiproliferative activity against human BxPC3 cells assessed as reduction in cell growth incubated for 72 hrs by MTT assay; type: functional, cell-based; conditions: BXPC-3, 72 h
MDA-MB-231 = test: Antiproliferative activity against human MDA-MB-231 cells assessed as cell growth at 10 uM incubated for 72 hrs by MTT assay relative to untreated control; type: functional; conditions: MDA-MB-231, 72 h, read-out: Activity
A549 [8] = test: Induction of apoptosis in human A549 cells at 0.5 times antiproliferative EC50 incubated for 72 hrs by Hoechst 33342 and propidium iodide staining based inverted fluorescent microscopy relative to untreated control; type: functional
BT-474 [9] = test: Antiproliferative activity against human BT474 cells assessed as cell growth at 10 uM incubated for 72 hrs by MTT assay relative to untreated control; type: functional; conditions: BT-474, 72 h, read-out: Activity
U-87 MG [10] = test: Antiproliferative activity against human U87 cells assessed as reduction in cell growth incubated for 72 hrs by MTT assay; type: functional, cell-based, U-87MG ATCC
MCF7 [11] = test: Antiproliferative activity against human MCF7 cells assessed as reduction in cell growth incubated for 72 hrs by MTT assay; type: functional, cell-based; conditions: MCF7, 72 h
[12] = Induction of apoptosis in human IGR-39 cells at 0.5 times antiproliferative EC50 incubated for 72 hrs by Hoechst 33342 and propidium iodide staining based inverted fluorescent microscopy relative to untreated control; type: functional
[13] = Antiproliferative activity against human NHFB cells assessed as cell growth at 10 uM incubated for 72 hrs by MTT assay relative to untreated control; type: cell-based; conditions: read-out: Activity
MCF7 [14] = test: Antiproliferative activity against human MCF7 cells assessed as cell growth at 10 uM incubated for 72 hrs by MTT assay relative to untreated control; type: functional; conditions: MCF7, 72 h, read-out: Activity
A549 [15] = test: Antiproliferative activity against human A549 cells assessed as cell growth at 10 uM incubated for 72 hrs by MTT assay relative to untreated control; type: functional; conditions: A549, 72 h, read-out: Activity
BXPC-3 [16] = test: Antiproliferative activity against human BxPC3 cells assessed as cell growth at 10 uM incubated for 72 hrs by MTT assay relative to untreated control; type: functional; conditions: BXPC-3, 72 h, read-out: Activity
[17] = Antiproliferative activity against human IGR-39 cells assessed as reduction in cell growth incubated for 72 hrs by MTT assay; type: functional, cell-based; conditions: IGR-39, 72 h
NCI-H1299 [18] = test: Antiproliferative activity against human NCI-H1299 cells assessed as cell growth at 10 uM incubated for 72 hrs by MTT assay relative to untreated control; type: functional; conditions: NCI-H1299, 72 h, read-out: Activity
U-87 MG [19] = test: Induction of apoptosis in human U87 cells at 0.5 times antiproliferative EC50 incubated for 72 hrs by Hoechst 33342 and propidium iodide staining based inverted fluorescent microscopy relative to untreated control; type: functional, U-87MG ATCC
A549 [20] = test: Induction of necrosis in human A549 cells at 0.5 times antiproliferative EC50 incubated for 72 hrs by Hoechst 33342 and propidium iodide staining based inverted fluorescent microscopy relative to untreated control; type: functional
U-87 MG [21] = test: Induction of necrosis in human U87 cells at 0.5 times antiproliferative EC50 incubated for 72 hrs by Hoechst 33342 and propidium iodide staining based inverted fluorescent microscopy relative to untreated control; type: functional, U-87MG ATCC
NCI-H1299 [22] = test: Antiproliferative activity against human NCI-H1299 cells assessed as reduction in cell growth incubated for 72 hrs by MTT assay; type: functional, cell-based; conditions: NCI-H1299, 72 h
BT-474 [23] = test: Antiproliferative activity against human BT474 cells assessed as reduction in cell growth incubated for 72 hrs by MTT assay; type: functional, cell-based; conditions: BT-474, 72 h
SK-OV-3 [24] = test: Antiproliferative activity against human SKOV3 cells assessed as reduction in cell growth incubated for 72 hrs by MTT assay; type: functional, cell-based; conditions: SK-OV-3, 72 h

Row | Structure (SMILES) | growth at 10 µM [3] [%] | growth at 10 µM (U-87 MG [4]) [%] | growth at 10 µM (SK-OV-3 [5]) [%] | growth at 10 µM (MDA-MB-231) [%] | growth at 10 µM (BT-474 [9]) [%] | viability at 72 h, 10 µM [13] [%] | growth at 10 µM (MCF7 [14]) [%] | growth at 10 µM (A549 [15]) [%] | growth at 10 µM (BXPC-3 [16]) [%] | growth at 10 µM (NCI-H1299 [18]) [%] | further results
1 | COc1ccc(C2CC(c3ccc4ccccc4c3)=NN2C2=NC(=O)/C(=C3/C(=O)Nc4ccc(C)cc43)S2)cc1 (stereo not drawn) | 0.46 | 14.2 | 66.6 | 10.8 | 40.2 | 11.8 | 4.81 | 6.21 | 5.02 | 19.3 | EC50 (A549 [1]): 180 nM; Activity [2]: <1%; EC50 [6]: 150 nM; EC50 (BXPC-3 [7]): 100 nM; Activity (A549 [8]): 13.5 - 27%; EC50 (U-87 MG [10]): 230 nM; EC50 (MCF7 [11]): 310 nM; Activity [12]: 13.5 - 27%; EC50 [17]: 140 nM; Activity (U-87 MG [19]): 13.5 - 27%; Activity (A549 [20]): <1%; Activity (U-87 MG [21]): <1%
2 | COc1ccc(C2CC(c3cccs3)=NN2C2=NC(=O)/C(=C3/C(=O)Nc4c(Br)cccc43)S2)cc1 (stereo not drawn) | 101 | 57 | 88 | 73.9 | 94.3 | 46.3 | 126 | 86.1 | 53.7 | 89.2 | 
3 | COc1ccc(C2CC(c3cccs3)=NN2C2=NC(=O)/C(=C3/C(=O)Nc4ccc(C)cc43)S2)cc1 (stereo not drawn) | 1.37 | 12.1 | 38.4 | 76.9 | 95 | 48.3 | 112 | 22.7 | 62.4 | 84 | 
4 | COc1ccc(C2CC(c3cccs3)=NN2C2=NC(=O)/C(=C3/C(=O)Nc4c(C)cc(C)cc43)S2)cc1 (stereo not drawn) | 117 | 126 | 79.9 | 111 | 103 | 80.3 | 114 | 104 | 72.3 | 120 | 
5 | COc1ccc(C2CC(c3cccs3)=NN2C2=NC(=O)/C(=C3/C(=O)Nc4ccc(F)cc43)S2)cc1 (stereo not drawn) | 28.1 | 14.4 | 94.1 | 81.5 | 102 | 20 | 112 | 63.6 | 77.2 | 68.3 | 
6 | COc1ccc(C2CC(c3cccs3)=NN2C2=NC(=O)/C(=C3/C(=O)Nc4ccc(Cl)cc43)S2)cc1 (stereo not drawn) | 0.9 | 4.35 | 56.6 | 80.4 | 86.8 | 47.5 | 112 | 22.4 | 59.6 | 117 | EC50 (U-87 MG [10]): 5760 nM; EC50 [17]: 2970 nM
7 | COc1ccc(C2CC(c3ccc4ccccc4c3)=NN2C2=NC(=O)/C(=C3/C(=O)Nc4c(Br)cccc43)S2)cc1 (stereo not drawn) | 98.6 | 96.7 | 89.9 | 68.2 | 88.2 | 47.3 | 102 | 94.2 | 55.3 | 81 | 
8 | COc1ccc(C2CC(c3ccc4ccccc4c3)=NN2C2=NC(=O)/C(=C3/C(=O)Nc4c(C)cc(C)cc43)S2)cc1 (stereo not drawn) | 63.4 | 64.2 | 26.6 | 73 | 62.2 | 55.6 | 120 | 43.8 | 44.9 | 87.8 | 
9 | COc1ccc(C2CC(c3ccc4ccccc4c3)=NN2C2=NC(=O)/C(=C3/C(=O)Nc4ccc(OC)cc43)S2)cc1 (stereo not drawn) | 1.2 | 1.13 | 41.4 | 9.67 | 49.1 | 13.3 | 3.64 | 3.93 | 5.13 | 9.85 | EC50 (NCI-H1299 [22]): 150 nM; EC50 (A549 [1]): 730 nM; EC50 [6]: 270 nM; EC50 (BXPC-3 [7]): 100 nM; EC50 (BT-474 [23]): 240 nM; EC50 (U-87 MG [10]): 670 nM; EC50 (MCF7 [11]): 270 nM; EC50 [17]: 500 nM
10 | COc1ccc(C2CC(c3ccc4ccccc4c3)=NN2C2=NC(=O)/C(=C3/C(=O)Nc4c(F)cccc43)S2)cc1 (stereo not drawn) | 109 | 86.2 | 67.7 | 87.3 | 112 | 89.4 | 118 | 86.5 | 73.1 | 60.5 | 
11 | COc1ccc(C2CC(c3cccs3)=NN2C2=NC(=O)/C(=C3/C(=O)Nc4ccc(OC)cc43)S2)cc1 (stereo not drawn) | 98.6 | 44.9 | 49.5 | 99.3 | 98.4 | 64.4 | 120 | 62.5 | 67.6 | 85.9 | 
12 | CCN(CC)CCNC(=O)c1c(C)[nH]c(/C=C2\C(=O)Nc3ccc(F)cc32)c1C [SUNITINIB] |  |  |  |  |  |  |  |  |  |  | EC50 (NCI-H1299 [22]): 1540 nM; EC50 (SK-OV-3 [24]): 1360 nM; EC50 [6]: 300 nM; EC50 (BXPC-3 [7]): 2500 nM; EC50 (BT-474 [23]): 900 nM; EC50 (MCF7 [11]): 960 nM
